*1 amine or outer side, *2 acyl side, *3 side chain or, on linkers, in order; H or OH if unused. Where a SMILES comes first, the peptide text is derived from it. Side-chain parts run from the residue outwards. [ ]: non-standard residue; d: D form. The star is where a group is joined. γGlu = O=C(O)[C@H](CCC(=O)[*:2])N[*:1]; Stearoyl = CCCCCCCCCCCCCCCCCC(=O)*; Palmitoyl = CCCCCCCCCCCCCCCC(=O)*; Aib = CC(C)(N)C(=O)O
Tests used:
Assay type in all cases: cell-based
Settings in all cases: Table 7; cAMP formation
[1] = target: T1, human GIP receptor (hGIP R) (Homo sapiens, UniProt P48546); assay: cAMP response of HEK-293 cells stably expressing human GIP receptor (HTRF)
T1 construct: expressed in transfected cells
T1 sequence (P48546 22-466): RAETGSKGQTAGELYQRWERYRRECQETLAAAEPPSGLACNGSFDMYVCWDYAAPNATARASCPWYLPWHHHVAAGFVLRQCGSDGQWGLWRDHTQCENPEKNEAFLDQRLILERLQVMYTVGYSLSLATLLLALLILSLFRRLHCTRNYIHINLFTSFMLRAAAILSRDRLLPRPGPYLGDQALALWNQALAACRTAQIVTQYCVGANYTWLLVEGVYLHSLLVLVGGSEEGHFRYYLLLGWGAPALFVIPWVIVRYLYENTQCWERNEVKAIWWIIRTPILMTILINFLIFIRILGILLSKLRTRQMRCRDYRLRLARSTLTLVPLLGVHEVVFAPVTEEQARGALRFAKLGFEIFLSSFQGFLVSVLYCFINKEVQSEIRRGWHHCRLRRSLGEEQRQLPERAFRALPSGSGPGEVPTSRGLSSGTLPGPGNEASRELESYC
Method: cAMP content of cells was determined using a kit from Cisbio Corp. (cat. no. 62AM4PEC) based on HTRF (Homogenous Time Resolved Fluorescence). For preparation, cells were split into T175 culture flasks and grown overnight to near confluency in medium (DMEM/10% FBS). Medium was then removed and cells washed with PBS lacking calcium and magnesium, followed by proteinase treatment with accutase (Sigma-Aldrich cat. no. A6964). Detached cells were washed and resuspended in assay buffer (1×HBSS; 20 mM HEPES, 0.1% BSA, 2 mM IBMX) and cellular density determined. They were then diluted to 400000 cells/ml and 25 μl-aliquots dispensed into the wells of 96-well plates. For measurement, 25 μl of test compound in assay buffer was added to the wells, followed by incubation for 30 minutes at room temperature.

[2] = target: T2, human glucagon receptor (hGLUC R) (Homo sapiens, UniProt P47871); assay: cAMP response of HEK-293 cells stably expressing human glucagon receptor (HTRF)
T2 construct: expressed in transfected cells
T2 sequence (P47871 26-477): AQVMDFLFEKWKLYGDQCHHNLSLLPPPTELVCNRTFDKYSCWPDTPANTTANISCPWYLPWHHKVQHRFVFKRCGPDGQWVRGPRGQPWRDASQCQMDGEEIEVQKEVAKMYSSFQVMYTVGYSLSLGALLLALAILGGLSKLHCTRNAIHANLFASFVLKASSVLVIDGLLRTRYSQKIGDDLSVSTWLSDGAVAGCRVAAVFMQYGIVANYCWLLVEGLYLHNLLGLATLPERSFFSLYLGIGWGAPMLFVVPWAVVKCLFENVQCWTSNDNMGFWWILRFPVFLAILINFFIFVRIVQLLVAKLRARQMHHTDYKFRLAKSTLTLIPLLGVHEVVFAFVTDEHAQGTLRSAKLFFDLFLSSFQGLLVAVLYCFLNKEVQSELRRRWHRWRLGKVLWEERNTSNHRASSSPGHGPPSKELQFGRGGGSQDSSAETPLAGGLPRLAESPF
Outline: (§1)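 Stably transfected HEK-293 cells, accutase-harvested; assay buffer 1×HBSS/20 mM HEPES/0.1% BSA/2 mM IBMX; 400000 cells/ml; compound 30 min, RT; cAMP by HTRF kit.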

[3] = target: T3, human GLP-1 receptor (hGLP-1 R) (Homo sapiens, UniProt P43220); assay: cAMP response of HEK-293 cells stably expressing human GLP-1 receptor (HTRF)
T3 construct: expressed in transfected cells
T3 sequence (P43220 24-463): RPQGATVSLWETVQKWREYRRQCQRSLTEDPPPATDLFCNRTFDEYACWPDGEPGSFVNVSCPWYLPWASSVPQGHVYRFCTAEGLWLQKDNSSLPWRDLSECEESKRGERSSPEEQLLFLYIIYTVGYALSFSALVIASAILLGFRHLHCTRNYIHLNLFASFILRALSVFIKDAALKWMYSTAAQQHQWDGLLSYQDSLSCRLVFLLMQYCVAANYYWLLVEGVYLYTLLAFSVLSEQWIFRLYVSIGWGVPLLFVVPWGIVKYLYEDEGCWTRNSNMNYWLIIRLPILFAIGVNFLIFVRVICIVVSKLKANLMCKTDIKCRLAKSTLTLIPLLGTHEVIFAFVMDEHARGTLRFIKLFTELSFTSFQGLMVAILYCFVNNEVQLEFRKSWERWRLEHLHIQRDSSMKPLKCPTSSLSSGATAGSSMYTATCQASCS
Outline: as §1

SMILES	EC50 [1] [nM]	EC50 [2] [nM]	EC50 [3] [nM]
CCCCCCCCCCCCCCCC(=O)N[C@@H](CCC(=O)NCCCC[C@H](NC(=O)[C@H](CCC(N)=O)NC(=O)[C@@H](NC(=O)[C@H](CO)NC(=O)[C@H](CC(C)C)NC(=O)[C@H](CC(=O)O)NC(=O)[C@H](CO)NC(=O)[C@@H](NC(=O)[C@H](Cc1ccccc1)NC(=O)[C@@H](NC(=O)CNC(=O)[C@H](CCC(N)=O)NC(=O)C(C)(C)NC(=O)[C@@H](N)Cc1ccc(O)cc1)[C@@H](C)O)[C@@H](C)O)[C@@H](C)CC)C(=O)N[C@@H](CC(=O)O)C(=O)N[C@@H](CO)C(=O)N[C@@H](CCCNC(=N)N)C(=O)N[C@@H](C)C(=O)N[C@@H](C)C(=O)N[C@@H](CCC(N)=O)C(=O)N[C@@H](CC(=O)O)C(=O)N[C@@H](Cc1ccccc1)C(=O)N[C@H](C(=O)N[C@@H](CCC(=O)O)C(=O)N[C@@H](Cc1c[nH]c2ccccc12)C(=O)N[C@@H](CC(C)C)C(=O)N[C@@H](CCCCN)C(=O)N[C@@H](CCCNC(=N)N)C(=O)NCC(=O)NCC(=O)N1CCC[C@H]1C(=O)N[C@@H](CO)C(=O)N[C@@H](CO)C(=O)NCC(=O)N[C@@H](C)C(=O)N1CCC[C@H]1C(=O)N1CCC[C@H]1C(=O)N1CCC[C@H]1C(=O)N[C@@H](CO)C(N)=O)[C@@H](C)CC)C(=O)O [SEQ ID NO: 34, Y-Aib-Q-G-T-F-T-S-D-L-S-I-Q-K(yE-x53)-DSRAAQDFIEWLKRGGPSSGAPPPS-NH2] (H-Y[Aib]QGTFTSDLSIQK([γGlu-Palmitoyl])DSRAAQDFIEWLKRGGPSSGAPPPS-NH2)	0.0513	0.222	0.0074
CCCCCCCCCCCCCCCC(=O)N[C@@H](CCC(=O)NCCCC[C@H](NC(=O)[C@H](CCC(N)=O)NC(=O)[C@H](CCCCN)NC(=O)[C@H](CO)NC(=O)[C@H](CC(C)C)NC(=O)[C@H](CC(=O)O)NC(=O)[C@H](CO)NC(=O)[C@@H](NC(=O)[C@H](Cc1ccccc1)NC(=O)[C@@H](NC(=O)CNC(=O)[C@H](CCC(=O)O)NC(=O)C(C)(C)NC(=O)[C@@H](N)Cc1ccc(O)cc1)[C@@H](C)O)[C@@H](C)O)C(=O)N[C@@H](CC(=O)O)C(=O)N[C@@H](CCCCN)C(=O)N[C@@H](CCCNC(=N)N)C(=O)N[C@@H](C)C(=O)N[C@@H](C)C(=O)N[C@@H](CCC(N)=O)C(=O)N[C@@H](CC(=O)O)C(=O)N[C@@H](Cc1ccccc1)C(=O)N[C@H](C(=O)N[C@@H](CCC(=O)O)C(=O)N[C@@H](Cc1c[nH]c2ccccc12)C(=O)N[C@@H](CC(C)C)C(=O)N[C@@H](CCCCN)C(=O)N[C@@H](C)C(=O)NCC(=O)NCC(=O)N1CCC[C@H]1C(=O)N[C@@H](CO)C(=O)N[C@@H](CO)C(=O)NCC(=O)N[C@@H](C)C(=O)N1CCC[C@H]1C(=O)N1CCC[C@H]1C(=O)N1CCC[C@H]1C(=O)N[C@@H](CO)C(N)=O)[C@@H](C)CC)C(=O)O [SEQ ID NO: 63, Y-Aib-E-G-T-F-T-S-D-L-S-K-Q-K(yE-x53)-DKRAAQDFIEWLKAGGPSSGAPPPS-NH2] (H-Y[Aib]EGTFTSDLSKQK([γGlu-Palmitoyl])DKRAAQDFIEWLKAGGPSSGAPPPS-NH2)	0.0119	1.67	0.006
CCCCCCCCCCCCCCCC(=O)N[C@@H](CCC(=O)NCCCC[C@H](NC(=O)[C@H](CCC(N)=O)NC(=O)[C@@H](NC(=O)[C@H](CO)NC(=O)[C@H](CC(C)C)NC(=O)[C@H](CC(=O)O)NC(=O)[C@H](CO)NC(=O)[C@@H](NC(=O)[C@H](Cc1ccccc1)NC(=O)[C@@H](NC(=O)CNC(=O)[C@H](CCC(=O)O)NC(=O)C(C)(C)NC(=O)[C@@H](N)Cc1ccc(O)cc1)[C@@H](C)O)[C@@H](C)O)[C@@H](C)CC)C(=O)N[C@@H](CCC(=O)O)C(=O)N[C@@H](CCC(=O)O)C(=O)N[C@@H](CCCNC(=N)N)C(=O)N[C@@H](C)C(=O)N[C@@H](C)C(=O)N[C@@H](Cc1c[nH]cn1)C(=O)N[C@@H](CCC(=O)O)C(=O)N[C@@H](Cc1ccccc1)C(=O)N[C@H](C(=O)N[C@@H](CCC(=O)O)C(=O)N[C@@H](Cc1c[nH]c2ccccc12)C(=O)N[C@@H](CC(C)C)C(=O)N[C@@H](CCCCN)C(=O)N[C@@H](CCCNC(=N)N)C(=O)NC(C)(C)C(=O)NCC(=O)N1CCC[C@H]1C(=O)N[C@@H](CO)C(=O)N[C@@H](CO)C(=O)NCC(=O)N[C@@H](C)C(=O)N1CCC[C@H]1C(=O)N1CCC[C@H]1C(=O)N1CCC[C@H]1C(=O)N[C@@H](CO)C(=O)N[C@@H](CCCCN)C(N)=O)[C@@H](C)CC)C(=O)O [SEQ ID NO: 57, Y-Aib-E-G-T-F-T-S-D-L-S-I-Q-K(yE-x53)-E-E-R-A-A-H-E-F-I-E-W-L-K-R-Aib-G-P-S-S-G-A-P-P-P-S-K-NH2]	0.0157	14.4	0.0071
CCCCCCCCCCCCCCCC(=O)N[C@@H](CCC(=O)NCCCC[C@H](NC(=O)[C@H](CCC(N)=O)NC(=O)[C@@H](NC(=O)[C@H](CO)NC(=O)[C@H](CC(C)C)NC(=O)[C@H](CC(=O)O)NC(=O)[C@H](CO)NC(=O)[C@@H](NC(=O)[C@H](Cc1ccccc1)NC(=O)[C@@H](NC(=O)CNC(=O)[C@H](CCC(N)=O)NC(=O)C(C)(C)NC(=O)[C@@H](N)Cc1ccc(O)cc1)[C@@H](C)O)[C@@H](C)O)[C@@H](C)CC)C(=O)N[C@@H](CCC(=O)O)C(=O)N[C@@H](CCCCN)C(=O)N[C@@H](CCCNC(=N)N)C(=O)N[C@@H](C)C(=O)N[C@H](C(=O)NC(C)(C)C(=O)N[C@@H](CCC(=O)O)C(=O)N[C@@H](Cc1ccccc1)C(=O)N[C@H](C(=O)N[C@@H](CCC(=O)O)C(=O)N[C@@H](Cc1c[nH]c2ccccc12)C(=O)N[C@@H](CC(C)C)C(=O)N[C@@H](CCCCN)C(=O)N[C@@H](C)C(=O)NCC(=O)NCC(=O)N1CCC[C@H]1C(=O)N[C@@H](CO)C(=O)N[C@@H](CO)C(=O)NCC(=O)N[C@@H](C)C(=O)N1CCC[C@H]1C(=O)N1CCC[C@H]1C(=O)N1CCC[C@H]1C(=O)N[C@@H](CO)C(N)=O)[C@@H](C)CC)C(C)C)C(=O)O [SEQ ID NO: 26, Y-Aib-Q-G-T-F-T-S-D-L-S-I-Q-K(yE-x53)-E-K-R-A-V-Aib-E-F-I-E-W-L-K-A-G-G-P-S-S-G-A-P-P-P-S-NH2] (H-Y[Aib]QGTFTSDLSIQK([γGlu-Palmitoyl])EKRAV[Aib]EFIEWLKAGGPSSGAPPPS-NH2)	0.0053	0.3	0.0176
CCCCCCCCCCCCCCCCCC(=O)N[C@@H](CCC(=O)NCCCC[C@H](NC(=O)[C@H](CCC(N)=O)NC(=O)[C@H](CCCCN)NC(=O)[C@H](CO)NC(=O)[C@H](CC(C)C)NC(=O)[C@H](CC(=O)O)NC(=O)[C@H](CO)NC(=O)[C@@H](NC(=O)[C@H](Cc1ccccc1)NC(=O)[C@@H](NC(=O)CNC(=O)[C@H](CCC(N)=O)NC(=O)C(C)(C)NC(=O)[C@@H](N)Cc1ccc(O)cc1)[C@@H](C)O)[C@@H](C)O)C(=O)N[C@@H](CC(=O)O)C(=O)N[C@@H](CO)C(=O)N[C@@H](CCCCN)C(=O)N[C@@H](C)C(=O)N[C@@H](C)C(=O)N[C@@H](CCC(N)=O)C(=O)N[C@@H](CC(=O)O)C(=O)N[C@@H](Cc1ccccc1)C(=O)N[C@H](C(=O)N[C@@H](CCC(=O)O)C(=O)N[C@@H](Cc1c[nH]c2ccccc12)C(=O)N[C@@H](CC(C)C)C(=O)N[C@@H](CCCCN)C(=O)N[C@@H](C)C(=O)NCC(=O)NCC(=O)N1CCC[C@H]1C(=O)N[C@@H](CO)C(=O)N[C@@H](CO)C(=O)NCC(=O)N[C@@H](C)C(=O)N1CCC[C@H]1C(=O)N1CCC[C@H]1C(=O)N1CCC[C@H]1C(=O)N[C@@H](CO)C(N)=O)[C@@H](C)CC)C(=O)O [SEQ ID NO: 41, Y-Aib-Q-G-T-F-T-S-D-L-S-K-Q-K(yE-x70)-DSKAAQDFIEWLKAGGPSSGAPPPS-NH2] (H-Y[Aib]QGTFTSDLSKQK([γGlu-Stearoyl])DSKAAQDFIEWLKAGGPSSGAPPPS-NH2)	0.186	0.0265	0.0241

Source: US20140213513A1 (Sanofi, priority 2012, published 2014)
